{"source": "patent US5976523A", "about": "“Method for healing compromised tissues using pyrimidine derivatives” (Mitsui Pharmaceuticals, Inc., priority 1995, dated 1999)", "key": {"[1]": {"test_system": "fractured tibia", "assay": "Tibia fracture model, histology on the 7th day", "type": "in vivo, Wistar rat", "conditions": "5 mg/kg i.p. once a day, 7 days", "description": "The tibia of each Wistar (body weight: 260-330 g) was broken manually and stabilized in situ by using a 22G syringe needle as an intramedullary nail under anesthesia by pentobarbital. The rats were divided into two groups. To one of the groups, 2-piperazino-6-methyl-5-oxo-5,6-dihydro(7H)pyrro[3,4-d]pyrimidine maleate was intraperitoneally administered at 5 mg/kg once a day everyday for 7 days from immediately after the fracture. The other group was used as a control group, to which physiological saline was administered likewise. The rats in both the groups were sacrificed on the 7th day. The broken tibia of each rat was […], embedded in paraffin and then subjected to HE staining. The texture of the fractured site was pathohistologically examined. In the control group, proliferation mesenchymal cells, which were considered to be derived from periosteal cells, and membranous ossification of an osteoid tissue were observed centering around the fractured site on the 7th day after the fracture. Further, honeycomb-shaped proliferation of chondrocytes in a small number associated with formation of a cartilage matrix was observed inside the mesenchymal cells."}, "[2]": {"test_system": "TMK1 cells", "assay": "TMK1 cell migration in Boyden's chamber", "type": "cell-based", "conditions": "4 hours", "description": "TMK1 cells, low-differentiating epithelial cells, were treated with trypsin. […] The culture medium in the lower well was then subjected to fixing and staining, and cells which had migrated therein were counted. Experiments were conducted concurrently in three chambers.\nEach value will be presented as a mean ±S.D. and with respect to each compound, numbers of cells will be presented in the order of a) control, b) each pyrimidine compound (whose concentration will be specifically indicated), c) 10 ng/ml of EGF, and d) a mixed solution of each pyrimidine compound + EGF."}, "[3]": {"test_system": "primary cultured gastric mucosal cells", "assay": "Wound repair model with primary cultured gastric mucosal cells", "type": "cell-based, rabbit", "description": "Primary cultured gastric mucosal cells were prepared by mechanically peeling and mincing the gastric mucosa of a rabbit having a body weight of 2 kg and then digesting the minced gastric mucosa with 0.07% collagenase. The primary cultured gastric mucosal cells were cultured at a cell concentration of 3.3×10^5 cells/ml in F-12 culture medium containing 10% fetal calf serum added therein. For this cultivation, a culture dish (60 mm in diameter) coated with collagen type I was used. […] Using an anti-BrdU antibody, the cells in the S phase were stained to identify proliferated cells.\nTheir effects on the process of restoration were measured under the above-described parameters. […] In each of the control group and the medicament-added groups, the area of the wounded region was measured at the 0th hour, 12th hour, 24th hour, 36th hour and 48th hour. The measurement results will be given in this order.\nThe control group and the groups added with the medicament at the respective concentrations were each subjected to the experiment with n=5. The results will each be presented as a (mean±S. D.) mm2. A test of significance was conducted relative to the control group. * stands for p<0.05, ** for p<0.01, *** for p<0.001. A further test of significance was conducted relative to a group added with 10 ng/ml of EGF. + stands for p<0.05, and ++ for <0.01."}}, "note": "Counter-ions that a name gives are not always drawn.", "data": [{"molecule": "CN1Cc2nc(N3CCNCC3)ncc2C1=O", "note": "[Compound B, 2-piperazino-6-methyl-5-oxo-5,6-dihydro(7H)pyrro[3,4-d]pyrimidine maleate]", "values": [{"measurement": "proliferation of mesenchymal cells at the fractured site", "setting": "[1]", "value": "marked proliferation of mesenchymal cells"}, {"measurement": "proliferation of chondrocytes associated with formation of a hyaline cartilage matrix enchondral ossification", "setting": "[1]; vs control group", "value": "in a quantity apparently much greater than that of the control group"}, {"measurement": "numbers of cells counted (migrated), mean ±S.D.", "setting": "[2]; compound 1 mM + EGF 10 ng/ml", "value": "111.2±8.0"}, {"measurement": "numbers of cells counted (migrated), mean ±S.D.", "setting": "[2]; compound alone, 1 mM", "value": "7.4±3.0"}, {"measurement": "area of the wounded region (mean±S.D.)", "setting": "[3]; EGF + 0.01 mM compound, 0th hour", "value": "2.06±0.04", "unit": "mm2"}, {"measurement": "area of the wounded region (mean±S.D.)", "setting": "[3]; EGF + 0.01 mM compound, 12th hour", "value": "0.92±0.05", "unit": "mm2"}, {"measurement": "area of the wounded region (mean±S.D.)", "setting": "[3]; EGF + 0.01 mM compound, 24th hour", "value": "0.38±0.05", "unit": "mm2"}, {"measurement": "area of the wounded region (mean±S.D.)", "setting": "[3]; EGF + 0.01 mM compound, 36th hour", "value": "0.07±0.04", "unit": "mm2"}, {"measurement": "area of the wounded region (mean±S.D.)", "setting": "[3]; EGF + 0.01 mM compound, 48th hour", "value": 0, "unit": "mm2"}, {"measurement": "area of the wounded region (mean±S.D.)", "setting": "[3]; EGF + 0.1 mM compound, 0th hour", "value": "2.06±0.04", "unit": "mm2"}, {"measurement": "area of the wounded region (mean±S.D.)", "setting": "[3]; EGF + 0.1 mM compound, 12th hour", "value": "0.83±0.05", "unit": "mm2"}, {"measurement": "area of the wounded region (mean±S.D.)", "setting": "[3]; EGF + 0.1 mM compound, 24th hour", "value": "0.29±0.07", "unit": "mm2"}, {"measurement": "area of the wounded region (mean±S.D.)", "setting": "[3]; EGF + 0.1 mM compound, 36th hour", "value": 0, "unit": "mm2"}, {"measurement": "area of the wounded region (mean±S.D.)", "setting": "[3]; EGF + 0.1 mM compound, 48th hour", "value": 0, "unit": "mm2"}, {"measurement": "effect on EGF-induced acceleration of cell restoration", "setting": "[3]; compound 0.01-0.1 mM with EGF", "value": "further promoted the EGF-induced acceleration of cell restoration in a concentration-dependent fashion"}, {"measurement": "repairing effects", "setting": "[3]; compound alone 0.01-0.1 mM, absence of EGF", "value": "did not show repairing effects in the absence of EGF"}]}]}
